Data: ChEMBL document CHEMBL3997839, “Novel conjugates of endoperoxide and 4-anilinoquinazoline as potential anticancer agents” (Bioorg Med Chem Lett, 2017)
Calls of active or inactive are those of the source. The calls are words filed in the database; no cut-off is given here.

Key:
A549 = assay: Antiproliferative activity against human A549 cells harboring wild type EGFR after 48 hrs by MTT assay; assay type: functional, cell-based
A-431 = assay: Antiproliferative activity against EGFR over-expressing human A431 cells after 48 hrs by MTT assay; assay type: functional, cell-based
NCI-H1975 [1] = assay: cells; assay type: functional, cell-based, Homo sapiens
HCC827 = assay: Antiproliferative activity against human HCC827 cells harboring EGFR E746_A750 deletion mutant after 48 hrs by MTT assay; assay type: functional, cell-based
L02 = assay: Antiproliferative activity against human HL7702 cells after 48 hrs by MTT assay; assay type: ADME, cell-based
[2] = target: Epidermal growth factor receptor (Homo sapiens, UniProt P00533)
Description: Inhibition of recombinant human GST-tagged EGFR cytoplasmic domain (668 to 1210 residues) expressed in baculovirus expression system by Z'-Lyte assay

[3] = target: Epidermal growth factor receptor (Homo sapiens, UniProt P00533, L858R); assay type: cell-based
[4] = target: Epidermal growth factor receptor (Homo sapiens, UniProt P00533, L858R/T790M); assay: Inhibition of recombinant human GST-tagged EGFR L858R/T790M double mutant cytoplasmic domain (668 to 1210 residues) expressed in baculovirus expression system by Z'-Lyte assay
NCI-H1975 [5] = assay: Induction of ROS generation in human NCI-H1975 cells harboring EGFR L858R/T790M double mutant at 100 uM after 4 hrs by DCFH-DA staining based flow cytometry; assay type: functional, cell-based
NCI-H1975 [6] = assay: Induction of ROS generation in human NCI-H1975 cells harboring EGFR L858R/T790M double mutant assessed as fluorescence level at 3 uM after 4 hrs by DCFH-DA staining based flow cytometry; assay type: functional
NCI-H1975 [7] = assay: Induction of ROS generation in human NCI-H1975 cells harboring EGFR L858R/T790M double mutant assessed as fluorescence level at 6 uM after 4 hrs by DCFH-DA staining based flow cytometry; assay type: functional
NCI-H1975 [8] = assay: Induction of ROS generation in human NCI-H1975 cells harboring EGFR L858R/T790M double mutant assessed as fluorescence level at 12 uM after 4 hrs by DCFH-DA staining based flow cytometry; assay type: functional
NCI-H1975 [9] = assay: Induction of ROS generation in human NCI-H1975 cells harboring EGFR L858R/T790M double mutant after 4 hrs by DCFH-DA staining based flow cytometry; assay type: functional, cell-based
NCI-H1975 [10] = assay: Induction of apoptosis in human NCI-H1975 cells harboring EGFR L858R/T790M double mutant after 48 hrs by Annexin V/propidium iodide staining based flow cytometry; assay type: functional, cell-based
NCI-H1975 [11] = assay: Induction of apoptosis in human NCI-H1975 cells harboring EGFR L858R/T790M double mutant assessed as live cells at 3 uM after 48 hrs by Annexin V/propidium iodide staining based flow cytometry (reference value: 83.5%); assay type: functional
NCI-H1975 [12] = assay: Induction of apoptosis in human NCI-H1975 cells harboring EGFR L858R/T790M double mutant assessed as early apoptotic cells at 3 uM after 48 hrs by Annexin V/propidium iodide staining based flow cytometry (reference value: 4.1%); assay type: functional
NCI-H1975 [13] = assay: Induction of apoptosis in human NCI-H1975 cells harboring EGFR L858R/T790M double mutant assessed as late apoptotic cells at 3 uM after 48 hrs by Annexin V/propidium iodide staining based flow cytometry (reference value: 7.2%); assay type: functional
NCI-H1975 [14] = assay: Induction of apoptosis in human NCI-H1975 cells harboring EGFR L858R/T790M double mutant assessed as necrotic cells at 3 uM after 48 hrs by Annexin V/propidium iodide staining based flow cytometry (reference value: 4.13%); assay type: functional
NCI-H1975 [15] = assay: Induction of apoptosis in human NCI-H1975 cells harboring EGFR L858R/T790M double mutant assessed as live cells at 6 uM after 48 hrs by Annexin V/propidium iodide staining based flow cytometry (reference value: 83.5%); assay type: functional
NCI-H1975 [16] = assay: Induction of apoptosis in human NCI-H1975 cells harboring EGFR L858R/T790M double mutant assessed as early apoptotic cells at 6 uM after 48 hrs by Annexin V/propidium iodide staining based flow cytometry (reference value: 4.1%); assay type: functional
NCI-H1975 [17] = assay: Induction of apoptosis in human NCI-H1975 cells harboring EGFR L858R/T790M double mutant assessed as late apoptotic cells at 6 uM after 48 hrs by Annexin V/propidium iodide staining based flow cytometry (reference value: 7.2%); assay type: functional
NCI-H1975 [18] = assay: Induction of apoptosis in human NCI-H1975 cells harboring EGFR L858R/T790M double mutant assessed as necrotic cells at 6 uM after 48 hrs by Annexin V/propidium iodide staining based flow cytometry (reference value: 4.13%); assay type: functional
NCI-H1975 [19] = assay: Induction of apoptosis in human NCI-H1975 cells harboring EGFR L858R/T790M double mutant assessed as live cells at 9 uM after 48 hrs by Annexin V/propidium iodide staining based flow cytometry (reference value: 83.5%); assay type: functional
NCI-H1975 [20] = assay: Induction of apoptosis in human NCI-H1975 cells harboring EGFR L858R/T790M double mutant assessed as early apoptotic cells at 9 uM after 48 hrs by Annexin V/propidium iodide staining based flow cytometry (reference value: 4.1%); assay type: functional
NCI-H1975 [21] = assay: Induction of apoptosis in human NCI-H1975 cells harboring EGFR L858R/T790M double mutant assessed as late apoptotic cells at 9 uM after 48 hrs by Annexin V/propidium iodide staining based flow cytometry (reference value: 7.2%); assay type: functional
NCI-H1975 [22] = assay: Induction of apoptosis in human NCI-H1975 cells harboring EGFR L858R/T790M double mutant assessed as necrotic cells at 9 uM after 48 hrs by Annexin V/propidium iodide staining based flow cytometry (reference value: 4.13%); assay type: functional
NCI-H1975 [23] = assay: Induction of apoptosis in human NCI-H1975 cells harboring EGFR L858R/T790M double mutant assessed as increase in cleaved PARP expression at 2.5 to 10 uM after 24 hrs by Western blot method; assay type: functional, cell-based
NCI-H1975 [24] = assay: Induction of ROS generation in human NCI-H1975 cells harboring EGFR L858R/T790M double mutant at 15 to 60 uM after 4 hrs by DCFH-DA staining based flow cytometry; assay type: functional, cell-based

Sequence of Epidermal growth factor receptor (Homo sapiens, UniProt P00533, L858R) (P00533 25-1210 L858R limits assumed): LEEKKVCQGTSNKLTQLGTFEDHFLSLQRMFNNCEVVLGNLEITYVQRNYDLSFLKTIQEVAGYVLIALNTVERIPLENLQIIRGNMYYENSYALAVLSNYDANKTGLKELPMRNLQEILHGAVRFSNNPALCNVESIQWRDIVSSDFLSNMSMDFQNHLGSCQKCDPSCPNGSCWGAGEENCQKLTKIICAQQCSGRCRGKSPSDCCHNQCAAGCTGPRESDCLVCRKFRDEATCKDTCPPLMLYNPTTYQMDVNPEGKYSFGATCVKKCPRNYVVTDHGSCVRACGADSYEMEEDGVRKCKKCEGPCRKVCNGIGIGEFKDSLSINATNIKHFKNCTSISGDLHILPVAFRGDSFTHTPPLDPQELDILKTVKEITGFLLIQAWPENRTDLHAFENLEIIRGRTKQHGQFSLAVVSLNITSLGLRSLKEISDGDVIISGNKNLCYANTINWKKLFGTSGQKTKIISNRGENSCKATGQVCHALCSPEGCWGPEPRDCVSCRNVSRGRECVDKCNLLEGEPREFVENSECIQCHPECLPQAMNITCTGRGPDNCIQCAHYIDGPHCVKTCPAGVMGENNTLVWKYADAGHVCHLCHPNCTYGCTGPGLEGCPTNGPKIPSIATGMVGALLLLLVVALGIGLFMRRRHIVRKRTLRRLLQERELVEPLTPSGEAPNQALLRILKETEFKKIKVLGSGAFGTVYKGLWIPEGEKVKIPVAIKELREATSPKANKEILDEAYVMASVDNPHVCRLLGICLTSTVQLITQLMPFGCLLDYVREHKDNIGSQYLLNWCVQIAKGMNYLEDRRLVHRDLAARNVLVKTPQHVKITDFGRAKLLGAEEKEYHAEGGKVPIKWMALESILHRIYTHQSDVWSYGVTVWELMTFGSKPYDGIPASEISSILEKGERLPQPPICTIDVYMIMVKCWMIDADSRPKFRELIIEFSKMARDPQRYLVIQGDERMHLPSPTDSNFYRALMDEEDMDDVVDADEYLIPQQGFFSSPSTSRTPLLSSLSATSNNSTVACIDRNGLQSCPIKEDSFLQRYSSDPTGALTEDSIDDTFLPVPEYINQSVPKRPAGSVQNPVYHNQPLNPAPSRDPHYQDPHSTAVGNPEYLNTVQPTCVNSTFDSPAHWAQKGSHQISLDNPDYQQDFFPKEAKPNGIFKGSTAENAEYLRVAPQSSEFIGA
Sequence of Epidermal growth factor receptor (Homo sapiens, UniProt P00533) (P00533 whole entry): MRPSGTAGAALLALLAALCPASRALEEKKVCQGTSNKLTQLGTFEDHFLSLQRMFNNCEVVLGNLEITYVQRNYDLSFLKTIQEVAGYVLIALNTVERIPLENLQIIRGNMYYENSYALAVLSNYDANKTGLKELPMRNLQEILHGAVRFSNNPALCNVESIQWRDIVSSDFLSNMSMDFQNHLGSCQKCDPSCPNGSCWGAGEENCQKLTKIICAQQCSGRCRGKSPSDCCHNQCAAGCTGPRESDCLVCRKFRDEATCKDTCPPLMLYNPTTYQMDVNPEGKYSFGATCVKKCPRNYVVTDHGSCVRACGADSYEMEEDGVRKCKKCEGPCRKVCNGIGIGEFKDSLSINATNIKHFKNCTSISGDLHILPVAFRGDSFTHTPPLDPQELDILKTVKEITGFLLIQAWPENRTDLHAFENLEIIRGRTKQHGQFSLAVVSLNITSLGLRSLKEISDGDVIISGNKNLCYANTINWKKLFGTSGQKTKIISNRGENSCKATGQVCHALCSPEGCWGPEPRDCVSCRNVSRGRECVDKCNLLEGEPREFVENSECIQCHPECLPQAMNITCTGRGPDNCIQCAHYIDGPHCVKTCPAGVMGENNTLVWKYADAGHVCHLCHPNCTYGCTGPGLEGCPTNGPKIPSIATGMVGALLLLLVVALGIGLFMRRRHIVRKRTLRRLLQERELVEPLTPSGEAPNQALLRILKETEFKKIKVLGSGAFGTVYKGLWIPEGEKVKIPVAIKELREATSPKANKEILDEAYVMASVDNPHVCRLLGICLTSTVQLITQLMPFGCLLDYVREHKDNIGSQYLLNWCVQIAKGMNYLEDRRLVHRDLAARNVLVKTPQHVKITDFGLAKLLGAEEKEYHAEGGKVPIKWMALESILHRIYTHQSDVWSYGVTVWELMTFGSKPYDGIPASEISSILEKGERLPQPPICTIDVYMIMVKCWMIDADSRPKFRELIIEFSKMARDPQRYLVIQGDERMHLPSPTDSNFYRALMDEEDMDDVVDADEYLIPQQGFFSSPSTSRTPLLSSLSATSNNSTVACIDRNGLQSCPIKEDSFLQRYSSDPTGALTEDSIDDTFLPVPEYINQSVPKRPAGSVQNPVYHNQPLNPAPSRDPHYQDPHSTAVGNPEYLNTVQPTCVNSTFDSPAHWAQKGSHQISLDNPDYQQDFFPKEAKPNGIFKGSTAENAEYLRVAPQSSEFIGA

Row | Compound | IC50 (A549; Homo sapiens, A549, 48 h) | IC50 (A-431; Homo sapiens, A-431, 48 h) | IC50 (NCI-H1975 [1]; Homo sapiens, NCI-H1975, 48 h) | IC50 (HCC827; Homo sapiens, HCC827, 48 h) | IC50 (L02; Homo sapiens, L02, 48 h) | IC50 [2] | IC50 [3] | IC50 [4] | IC50 (A-431; a-431) | IC50 (NCI-H1975 [1]; nci-h1975) | IC50 (HCC827; hcc827) | other results
1 | O=C(Nc1ccc2nccc(Nc3cccc(Cl)c3)c2c1)C1CCC2(CC1)OCC1(OO2)C2CC3CC(C2)CC1C3 (stereo not given) | 26.1 µM | > 50 µM | > 50 µM | 31.6 µM | > 100 µM | 0.169 µM | 0.132 µM | > 10 µM |  |  |  | Activity (NCI-H1975 [5]): inactive
2 | Nc1ccc2ncnc(Nc3cccc(Cl)c3)c2c1 |  |  |  |  |  |  |  |  | > 50 µM | > 50 µM | 0.1 µM | IC50 (A549; a549): > 100 µM; IC50 (L02; l02): > 100 µM
3 | O=C(Nc1ccc2ncnc(Nc3cccc(Cl)c3)c2c1)C1CCC2(CC1)OOC1(OO2)C2CC3CC(C2)CC1C3 (stereo not given) | 0.92 µM | 8.06 µM | 3.06 µM | 0.31 µM | 5.7 µM | 0.38 µM | 0.374 µM | > 10 µM |  |  |  | Flu intensity (NCI-H1975 [6]): 2.59; Flu intensity (NCI-H1975 [7]): 3.53; Flu intensity (NCI-H1975 [8]): 6.42; Activity (NCI-H1975 [9]): Dose-dependent effect; Activity (NCI-H1975 [10]): Dose-dependent effect; Activity (NCI-H1975 [11]): 83.5%; Activity (NCI-H1975 [12]): 7.54%; Activity (NCI-H1975 [13]): 7.47%; Activity (NCI-H1975 [14]): 4.57%; Activity (NCI-H1975 [15]): 74.2%; Activity (NCI-H1975 [16]): 12.7%; Activity (NCI-H1975 [17]): 8.12%; Activity (NCI-H1975 [18]): 4.26%; Activity (NCI-H1975 [19]): 52.2%; Activity (NCI-H1975 [20]): 7.56%; Activity (NCI-H1975 [21]): 19.8%; Activity (NCI-H1975 [22]): 9.31%; Activity (NCI-H1975 [23]): Active
4 | COc1cc2ncnc(Nc3ccc(F)c(Cl)c3)c2cc1OCCCN1CCOCC1 |  |  |  |  |  |  |  |  |  |  |  | Activity (NCI-H1975 [24]): inactive
5 | CC1(C)OOC2(CCC(C(=O)Nc3ccc4ncnc(Nc5cccc(Cl)c5)c4c3)CC2)OO1 | 3.62 µM | 19.6 µM | 1.77 µM | 0.26 µM | 25.8 µM | 0.0114 µM | 0.0171 µM | > 10 µM |  |  |  | 
6 | O=C(Nc1ccc2nccc(Nc3cccc(Cl)c3)c2c1)C1CCC2(CC1)OOC1(O2)C2CC3CC(C2)CC1C3 (stereo in doubt; 13) | 25.3 µM |  | 33.4 µM | 12 µM | 25.5 µM | 0.178 µM | 0.236 µM | > 10 µM | > 50 µM |  |  | 
7 | O=C(Nc1ccc2ncnc(Nc3cccc(Cl)c3)c2c1)C1CCC2(CC1)OCC1(OO2)C2CC3CC(C2)CC1C3 (stereo in doubt; 7) | 18 µM | 22 µM |  |  | > 100 µM | 0.0947 µM | 0.112 µM | > 10 µM |  | 21.3 µM | 5.09 µM | 
8 | O=C(Nc1ccc2ncnc(Nc3cccc(Cl)c3)c2c1)C1CCC2(CC1)OOC1(CCCCC1)OO2 | 0.87 µM | 3.99 µM | 0.89 µM | 0.05 µM | 1.43 µM | 0.0838 µM | 0.112 µM | > 10 µM |  |  |  | 
9 | O=C(Nc1ccc2ncnc(Nc3cccc(Cl)c3)c2c1)C1CCC2(CC1)OCC1(OO2)C2CC3CC(C2)CC1C3 (stereo in doubt; 8) |  |  |  |  |  | 0.117 µM | 0.175 µM |  | 23.1 µM | 48.5 µM | 10.7 µM | IC50 (A549; a549): 24.7 µM
10 | O=C(Nc1ccc2nccc(Nc3cccc(Cl)c3)c2c1)C1CCC2(CC1)OOC1(O2)C2CC3CC(C2)CC1C3 (stereo in doubt; 14) |  |  |  |  |  | 0.128 µM | 0.146 µM |  | 13.6 µM | 22.3 µM | 17 µM | IC50 (A549; a549): 18.3 µM; IC50 (L02; l02): > 50 µM
11 | O=C(Nc1ccc2ncnc(Nc3cccc(Cl)c3)c2c1)C1CCC2(CC1)OOC1(O2)C2CC3CC(C2)CC1C3 (stereo not given) | 8.45 µM | 31.5 µM | 13 µM | 2.29 µM | 18.2 µM | 0.0324 µM | 0.0489 µM | > 10 µM |  |  |  | 
12 | O=C(O)C1CCC2(CC1)OOC1(OO2)C2CC3CC(C2)CC1C3 (stereo not given) | > 100 µM | > 100 µM | > 50 µM | > 50 µM | > 100 µM | > 10 µM | > 10 µM | > 10 µM |  |  |  | 
13 | O=C(Nc1ccc2ncnc(Nc3cccc(Cl)c3)c2c1)C1CCCCC1 | 6.36 µM | > 50 µM | 41.8 µM | 2.55 µM | > 50 µM | 0.00613 µM | 0.00696 µM | > 10 µM |  |  |  | 
